# Values quoted from earlier work as cited in patent US7691896B2, “Analogs of salinosporamide A” (President and Fellows of Harvard College, priority 2005, dated 2010).
# Peptide text beside a SMILES is read from it. * marks the point of attachment. Cbz = O=C(OCc1ccccc1)*
# Tested on: PC12 cells
# Conditions: Tsubuki et al. 1993
smiles,measurement,value
CC(C)C[C@@H](C=O)NC(=O)[C@H](CC(C)C)NC(=O)[C@H](CC(C)C)NC(=O)OCc1ccccc1 [benzyloxycarbonyl (Z)-Leu-Leu-leucinal] (Cbz-Leu-Leu-Leu-aldehyde),optimal concentration inducing neurite outgrowth,30 nM
